# Measured values taken from ChEMBL document CHEMBL4052779, “Isosorbide-based peptidomimetics as inhibitors of hepatitis C virus serine protease” (Bioorg Med Chem Lett, 2017).
# Experiments:
# [1] = Solubility of the compound in aqueous buffer; assay type: physicochemical
# Hepacivirus hominis [2] = assay: Inhibition of recombinant HCV NS3/4A protease at 100 uM pre-incubated for 10 mins followed by 5-FAM/QXL520 substrate addition and measured after 60 mins by FRET analysis relative to control
# Hepacivirus hominis [3] = assay: Inhibition of recombinant wild type HCV NS3/4A protease assessed as residual enzyme activity at 100 uM pre-incubated for 10 mins followed by 5-FAM/QXL520 substrate addition and measured after 60 mins by FRET analysis relative to control
# Hepacivirus hominis [4] = assay: Inhibition of recombinant HCV NS3/4A protease V170A mutant assessed as residual enzyme activity at 100 uM pre-incubated for 10 mins followed by 5-FAM/QXL520 substrate addition and measured after 60 mins by FRET analysis relative to control
# [5] = Inhibition of recombinant HCV NS3/4A protease pre-incubated for 10 mins followed by 5-FAM/QXL520 substrate addition and measured after 60 mins by FRET analysis relative to control; parameters: species or system Hepacivirus hominis
# [6] = system: Hepatitis C virus serine protease, NS3/NS4A (Hepatitis C virus), D2K2A8+A3EZI9 [D168A]; assay: Inhibition of recombinant HCV NS3/4A protease D168A mutant assessed as residual enzyme activity at 100 uM pre-incubated for 10 mins followed by 5-FAM/QXL520 substrate addition and measured after 60 mins by FRET analysis relative to control; conditions: Hepacivirus hominis
SMILES,solubility [1],inhibition (Hepacivirus hominis [2]) [%],other results
C[C@@H](O)[C@H](NC(=O)OC(C)(C)C)C(=O)N[C@H]1CO[C@H]2[C@@H]1OC[C@@H]2OCc1ccccc1,Insoluble,,
CC(C)(C)OC(=O)N1CCC[C@H]1C(=O)N[C@H]1CO[C@H]2[C@@H]1OC[C@@H]2OCc1ccccc1,Insoluble,,
O=C(N[C@H]1CO[C@H]2[C@@H]1OC[C@@H]2OCc1ccccc1)/C(=C/c1ccco1)NC(=O)c1ccccc1,Soluble,81.8,Activity (Hepacivirus hominis [3]): 18.2%; Activity (Hepacivirus hominis [4]): 6.7%; IC50 [5]: 36 µM; Activity [6]: 36.7%
CC(C)(C)OC(=O)N[C@@H](CCCN/C(=N\C(=O)OCc1ccccc1)NC(=O)OCc1ccccc1)C(=O)N[C@H]1CO[C@H]2[C@@H]1OC[C@@H]2OCc1ccccc1,Insoluble,,

# More lines, main results first:
solubility [1],inhibition (Hepacivirus hominis [2]) [%],SMILES,other results
Insoluble,,CC(C)(C)OC(=O)N[C@@H](Cc1c[nH]c2ccccc12)C(=O)N[C@H]1CO[C@H]2[C@@H]1OC[C@@H]2OCc1ccccc1,
Insoluble,45,O=C(N[C@@H]1CO[C@H]2[C@@H]1OC[C@H]2OCc1ccccc1)/C(=C/c1cccs1)NC(=O)c1ccccc1,
Soluble,30.3,O=C(N[C@H]1CO[C@H]2[C@@H]1OC[C@@H]2OCc1ccccc1)/C(=C/c1cc2ccccc2s1)NC(=O)c1ccccc1,
Insoluble,,COc1ccc(CO[C@H]2CO[C@H]3[C@@H]2OC[C@@H]3NC(=O)/C(=C/c2cccs2)NC(=O)c2ccccc2)cc1,
